Source: patent US4236015A, “1-(2-Acylaminophenyl)imidazoles” (Westwood Pharmaceuticals, Inc., priority 1979, dated 1980)

Experiments:
[1] = tested on: cell-mediated immune response to the antigen, Mycobacterium tuberculosis H37Ra; assay: Delayed hypersensitivity test; format: in vivo, mouse; details: for D.H.S. (ED60): s.c., mice, 60% reduction of edema of cell-mediated immune response vs control
Procedure: The immunosuppressant activities of the compounds of this invention were determined via the hemolysin test in mice and by the delayed hypersensitivity test. The hemolysin test used is that described in Methods in Immunology, edited by D. H. Campbell et al, W. A. Benjamin, New York 1963 pages 172-175, and measures humeral or antibody response. The delayed hypersensitivity test measures the effect of a test compound on the ability of a subject mouse to mount a cell-mediated immune response to the antigen, Mycobacterium tuberculosis H37Ra. The mouse is sensitized to the antigen by subcutaneous administration in the base of the tail. The development of the delayed hypersensitivity response may be measured at any time beginning six days after sensitization but is usually done on the ninth day as follows: The right hind paw is injected with purified protein derivative (tuberculin) while the left hind paw (control) receives physiological saline. Both paw volumes are measured after twenty-four hours and significant increase in the volume of the right hind paw is taken as a measure of an effective delayed hypersensitivity response. All compounds were administered by the subcutaneous route.
The D.H.S. (ED60) mg./kg. s.c. value appearing in column 3 is an expression of the effectiveness of the drug in reducing the edema that accompanies the cell-mediated immune response. It is a measure of the number of milligrams per kilogram of body weight of the drug administered subcutaneously which is required to reduce the edema of the cell-mediated immune response by 60% when compared to the control.

[2] = tested on: Trichophyton rubrum; assay: Antifungal activity, agar dilution method; format: cell-based, Trichophyton rubrum (ATCC No. 10218 and 14001)
Procedure: (§1) Various compounds of this invention display antifungal and anti-yeast activity.
(§2) In Table IX below are listed the antifungal activity of a number of compounds encompassed in the present invention. These were determined by the agar dilution method as described in Chapters 2 and 3 of Methods in Microbiology, Vol. 7B, edited by J. R. Norris and D. W. Ribbons, Academic Press, New York, 1972.

[3] = tested on: T. agelloi; assay: Antifungal activity, agar dilution method; format: cell-based, Trichophyton ajelloi
Procedure: as §1, §2

[4] = tested on: Trichophyton mentagrophytes; assay: Antifungal activity, agar dilution method; format: cell-based, Trichophyton mentagrophytes (ATCC No. 8757 and 9129)
Procedure: as §1, §2

[5] = tested on: Candida tropicalis; assay: Antifungal activity, agar dilution method; format: cell-based
Procedure: as §1, §2

[6] = tested on: Candida albicans; assay: Antifungal activity, agar dilution method; format: cell-based, Candida albicans (ATCC No. 10231)
Procedure: as §1, §2

[7] = tested on: rat paw edema; assay: Rat paw edema assay, oral dosing; format: in vivo; details: 4 hours
Procedure: (§3) The anti-inflammatory activity of representative compounds of this invention was determined by the rat paw edema assay both by local administration (Table XI below) and by oral dosing (Table XII below). For the oral dosing, the procedure of C. A. Winter, E. A. Risley and G. W. Nuss, Proc. Soc. Exp. Biol. Med. 111, 544 (1962) was employed with measurement taken four hours after the drug was administered. The local administration tests were carried out similarly except the irritant (carrageenan) and the test compound were injected simultaneously at time zero. Tables XI and XII report the anti-inflammatory activity of the compounds tested as % difference in the edema or swelling as compared with the control. These Tables also give the response in many instances of more than one dose level of the same drug.

[8] = tested on: humeral or antibody response; assay: Hemolysin test in mice; format: in vivo; details: s.c., 50% reduction of antibody activity vs control
[9] = tested on: carrageenan rat paw edema; assay: Rat paw edema assay, local administration; format: in vivo; details: 100 mg/kg
Procedure: as §3

SMILES	ED60 ([1]; Mus musculus, sc, read-out: D.H.S. (ED60))	Parts Per Million Inhibitions, T. rubrum [2]	Parts Per Million Inhibitions, T. agelloi [3]	Parts Per Million Inhibitions, T. mentagrophytes [4]	Parts Per Million Inhibitions, C. tropicalis [5]	Parts Per Million Inhibitions, C. albicans [6]	D.H.S. (ED60) [1]	Difference from Control ([7]; 100 mg/kg)	HL(ED50) [8]	Difference from Control ([7]; 400 mg/kg)	% Difference from Control [9]
c1ccc(Oc2ccc(-c3nc4ccccc4n4ccnc34)cc2)cc1 [Compound 219]	< 32 mg/kg	–	–	–	–	–	–	–	–	–	–
CCCCCCCCCC(=O)Oc1ccc(-c2nc3ccccc3n3ccnc23)cc1 [Compound 165]	–	100 Parts Per Million	100 Parts Per Million	100 Parts Per Million	–	–	–	–	–	–	–
Cc1cccc(-c2nc3ccccc3n3ccnc23)c1 [Compound 133]	–	8 Parts Per Million	8 Parts Per Million	8 Parts Per Million	100 Parts Per Million	100 Parts Per Million	32 mg/kg	-17%	0.75 mg/kg	–	–
Cc1ccc(-c2nc3ccccc3n3ccnc23)cc1 [Compound 134]	–	–	100 Parts Per Million	16 Parts Per Million	–	–	7.2 mg/kg	-43%	0.5 mg/kg	–	–
Cc1ccccc1-c1nc2ccccc2n2ccnc12 [Compound 132]	–	–	100 Parts Per Million	100 Parts Per Million	–	–	–	-76%	–	–	–
CC(C)(C)c1ccc(-c2nc3ccccc3n3ccnc23)cc1 [Compound 137]	–	–	100 Parts Per Million	100 Parts Per Million	–	–	3.2 mg/kg	-26%	< 0.125 mg/kg	–	–
FC(F)(F)c1cccc(-c2nc3ccccc3n3ccnc23)c1 [Compound 136]	–	–	–	100 Parts Per Million	–	–	> 50 mg/kg	-9%	2.7 mg/kg	-25%	–
Clc1ccc(-c2nc3ccccc3n3ccnc23)cc1 [Compound 140]	–	< 0.5 Parts Per Million	–	–	–	–	1.15 mg/kg	-35%	0.26 mg/kg	–	-78%
COc1cc(OC)cc(-c2nc3ccccc3n3ccnc23)c1 [Compound 139]	–	–	–	100 Parts Per Million	–	–	> 50 mg/kg	-22%	3.0 mg/kg	-25%	–
c1ccc(-c2ccc(-c3nc4ccccc4n4ccnc34)cc2)cc1 [Compound 135]	–	–	100 Parts Per Million	100 Parts Per Million	–	–	0.22 mg/kg	–	0.033 mg/kg	–	–
